Laboratory results published in patent publication US20050101542A1, “Combination therapy for controlling appetites” (Regents of the University of California, priority 2002, published 2005).

Tests used:
[1] = Intracerebroventricular OEA on food intake in 24 h food-deprived rats; format: in vivo, rat; details: for food intake 60 min / food intake 120 min / food intake 240 min: 24 h food-deprived rats
Experimental: Feeding experiments. Acute experiments. Food intake was measured in 24-h food-deprived rats (Navarro, et al., J. Neurochem., 67:1982-1991 (1996)), administering drugs 15 min before food presentation. Subchronic experiments. Ad libitum fed rats received vehicle injections for three days. On day four, the animals were divided in two equal groups and gave them daily injections of vehicle or OEA (5 mg per kg at 1900 h) for 7 consecutive days, while measuring body weight, food intake and water intake.

[2] = Operant responses for food; format: in vivo, rat; details: at a dose substantially higher than those required to produce hypophagia
From the text: Operant responses for food. Rats were trained to lever press for food on a fixed ratio 1 (FR1) schedule of reinforcement, while food-restricted at 20 g of chow per rat per day (Rodriguez de Fonseca, et al., Acta Pharmacol. Sin., 20:1109-1114 (1999)). Once stable responding was achieved, the animals were trained to acquire an FR5, time out 2-min schedule of food reinforcement and kept in limited access to food. When a stable baseline was obtained, the animals were used to test the effects of vehicle or OEA (1, 5 or 20 mg per kg) administered 15 min before lever presentation. Test duration was 60 min.

[3] = Plasma hormone levels by radioimmunoassay; format: in vivo, rat; details: 20 mg per kg i.p.
Experimental: Blood chemistry. Plasma β-hydroxybutyrate and glycerol were measured using commercial kits (Sigma, St. Louis, Mo.). Plasma prolactin, corticosterone and luteinizing hormone were quantified by radioimmunoassay (Navarro, et al., Neuroreport, 8:491-496 (1997)).

Astrocyte = assay: [14C]oleate oxidation to ketone bodies in astrocytes; format: cell-based, rat; details: 30 min incubation
From the text: This example illustrates the effect of OEA on fat metabolism and methods for studying the same. Oleoylethanolamide (OEA) decreases body weight not only by suppressing appetite, but also by possibly enhancing body fat catabolism. The effects of OEA on fatty acid oxidation in major body-fat burning tissues (soleus muscle, liver, cultured cardiac myocytes and astrocytes) was examined. […] In addition, OEA induces a significant mobilization of triacylglycerol stores from primary white adipose tissue cells. Table 4 details the methods and effects of OEA on fatty acid oxidation in these cells. Structure-activity relationship experiments provide evidence that the effect of OEA on skeletal muscle fatty acid oxidation is specific (FIG. 8).

human PPARα = molecular target: T1, human PPARα (Homo sapiens, UniProt Q07869); assay: GAL4 chimeric receptor transactivation assay in HeLa cells, PPARα; format: cell-based; details: HeLa transactivation assay, 7 hours; read-out: EC50 for PPARα activation
T1 construct: expressed in transfected cells; host or cells: HeLa (clonal reporter line HLR, stably transfected with pFA-PPARα)
T1 sequence (Q07869 239-466 limits assumed): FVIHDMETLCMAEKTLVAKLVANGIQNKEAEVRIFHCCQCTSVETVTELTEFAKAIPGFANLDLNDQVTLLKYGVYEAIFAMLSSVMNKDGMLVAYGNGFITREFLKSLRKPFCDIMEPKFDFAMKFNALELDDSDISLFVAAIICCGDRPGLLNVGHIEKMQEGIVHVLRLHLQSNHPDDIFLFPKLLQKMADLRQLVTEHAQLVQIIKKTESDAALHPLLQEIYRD
Experimental: Eighteen hours following transfection, the culture media was replaced with supplemented DMEM containing hygromycin (100 μg-ml^−1, Calbiochem). After 4 weeks in culture, the surviving clones were isolated and analyzed by luciferase assay. […] The cells were cultured in supplemented DMEM containing hygromycin and G418. For transactivation assays, cells were seeded in 6-well plates (50,000 cells per well) and incubated for 7 hours in supplemented DMEM containing hygromycin and G418, plus appropriate concentrations of test compounds. Dual-luciferase reporter assay system (Promega) and an MLX Microtiter® plate luminometer (Dynex) were used to determine luciferase activity in cell lysates.

PPAR-α-regulated genes = assay: Real time quantitative PCR of gene expression in mouse intestine and liver; format: in vivo
Experimental: Tissues were stored in RnaLater™ (Ambion), extracted total RNA with TRIzol™ (Invitrogen) and quantified it with Ribogreen™ (Molecular Probes). cDNA was synthesized by using SuperscriptII RNase H-reverse transcriptase (Invitrogen).
Reverse transcription of total RNA (2 μg) was performed using Oligo(dT)12-18 primer (0.2 μg) for 50 min at 42° C. Real Time Quantitative (RTQ) PCR was conducted using an ABI PRISM 7700 sequence detection system (Applied Biosystems). Primer/probe sets were designed using the Primer Express™ software and gene sequences available from the Genebank™ database. Primers and fluorogenic probes were synthesized by TIB (Adelphia). The primer/probe sequences for the mouse genes were:
RNA levels were normalized by using glyceraldehyde 3-phosphate dehydrogenase (GAPDH) as an internal standard. mRNA levels were measured by generating six-point serial standard curves using mouse total RNA. Estimates of relative mRNA abundance (in arbitrary units) were made by using the CT value (Schmittgen et al., 2000). Relative quantifications of RNAs of interest were made by using the 2^ΔCT formula, in which ΔCT was calculated by subtracting the CT value for GAPDH from the CT value for the gene of interest. This formula was validated for each primer/probe set by using six-point serial standard curves.

CCCCCCCC/C=C\CCCCCCCC(=O)NCCO [OEA, Z-2-hydroxyethyl octadec-9-enamide]
food intake 60 min ([1]; OEA 0.4 μg per animal i.c.v.): 4.8 ± 0.4 | food intake 120 min ([1]; OEA 0.4 μg per animal i.c.v.): 6.6 ± 0.4 | food intake 240 min ([1]; OEA 0.4 μg per animal i.c.v.): 8.4 ± 0.4 | food intake 60 min ([1]; OEA 2 μg per animal i.c.v.): 4.9 ± 0.4 | food intake 120 min ([1]; OEA 2 μg per animal i.c.v.): 6.6 ± 0.6 | food intake 240 min ([1]; OEA 2 μg per animal i.c.v.): 8.7 ± 0.5 | food intake 60 min ([1]; OEA 10 μg per animal i.c.v.): 5.9 ± 0.2 | food intake 120 min ([1]; OEA 10 μg per animal i.c.v.): 8.1 ± 0.4 | food intake 240 min ([1]; OEA 10 μg per animal i.c.v.): 9.6 ± 0.7 | effect on food intake after direct injection into the brain ventricles ([1]; i.c.v.): ineffective | operant responses for food [2]: reduced | activity of the hypothalamus-pituitary-adrenal (HPA) axis [3]: did not alter | Stimulatory effect of 10 μM OEA on [14C]oleate oxidation to ketone bodies (Astrocyte): 2 ± 6 (n = 3) % | EC50 (human PPARα): 120 nM | expression of PPAR-α-regulated genes (PPAR-α-regulated genes; ileum): not and fail to induce expression | expression of PPAR-α-regulated genes (PPAR-α, FAT/CD36, FATP1) (PPAR-α-regulated genes; jejunum of wild-type mice, OEA or oleic acid 10, Wy-14643 30 mg kg^−1 i.p.): increased the expression | expression of genes not under the control of PPAR-α (I-FABP, PPAR-β/δ, PPAR-γ) (PPAR-α-regulated genes; jejunum, wild-type or PPAR-α-null mice): not affected | gene expression in mice deficient in PPAR-α (PPAR-α-regulated genes; jejunum, OEA 10, Wy-14643 30 mg kg^−1 i.p.): did not stimulate gene expression | transcription of PPAR-α-regulated genes (PPAR-α-regulated genes; liver of wild-type mice): initiated transcription
